Patent US20220089609A1, “SUBSTITUTED QUINAZOLINONE DERIVATIVES AND THEIR USE AS POSITIVE ALLOSTERIC MODULATORS OF MGLUR4” (DOMAIN THERAPEUTICS, priority 2018, published 2022)
Several values for one entry are separate records, joined by “and”; a condition that tells them apart may be missing. Equal entries are not always repeated.

Columns and labels:
human mGluR4 (hmGluR4) = molecular target: T1, human mGluR4 (hmGluR4) (Homo sapiens, UniProt Q14833); test: Calcium assay EC50 determination, positive allosteric modulator activity on hmGluR4 transiently over-expressed in HEK-293 cells; format: cell-based; conditions: PAM mode with EC20 glutamate; hmGluR4 in HEK-293 cells; intracellular calcium (Fluo4AM); read-out: mGluR4 positive allosteric modulator activity, half maximal effective concentration (EC50)
T1 construct: expressed in transfected cells; host or cells: HEK-293 cells, transient co-transfection by electroporation
How it was run: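 HEK-293 cells transiently co-transfected with hmGluR4, chimeric G protein and glutamate transporters; Fluo4AM calcium read (ex 485/em 525 nm) on FLIPR Tetra. Compound alone 10 min for agonism, then EC20 glutamate with 3 min recording for PAM activity, versus buffer or EC20 glutamate basal.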

T1 sequence (Q14833 33-912): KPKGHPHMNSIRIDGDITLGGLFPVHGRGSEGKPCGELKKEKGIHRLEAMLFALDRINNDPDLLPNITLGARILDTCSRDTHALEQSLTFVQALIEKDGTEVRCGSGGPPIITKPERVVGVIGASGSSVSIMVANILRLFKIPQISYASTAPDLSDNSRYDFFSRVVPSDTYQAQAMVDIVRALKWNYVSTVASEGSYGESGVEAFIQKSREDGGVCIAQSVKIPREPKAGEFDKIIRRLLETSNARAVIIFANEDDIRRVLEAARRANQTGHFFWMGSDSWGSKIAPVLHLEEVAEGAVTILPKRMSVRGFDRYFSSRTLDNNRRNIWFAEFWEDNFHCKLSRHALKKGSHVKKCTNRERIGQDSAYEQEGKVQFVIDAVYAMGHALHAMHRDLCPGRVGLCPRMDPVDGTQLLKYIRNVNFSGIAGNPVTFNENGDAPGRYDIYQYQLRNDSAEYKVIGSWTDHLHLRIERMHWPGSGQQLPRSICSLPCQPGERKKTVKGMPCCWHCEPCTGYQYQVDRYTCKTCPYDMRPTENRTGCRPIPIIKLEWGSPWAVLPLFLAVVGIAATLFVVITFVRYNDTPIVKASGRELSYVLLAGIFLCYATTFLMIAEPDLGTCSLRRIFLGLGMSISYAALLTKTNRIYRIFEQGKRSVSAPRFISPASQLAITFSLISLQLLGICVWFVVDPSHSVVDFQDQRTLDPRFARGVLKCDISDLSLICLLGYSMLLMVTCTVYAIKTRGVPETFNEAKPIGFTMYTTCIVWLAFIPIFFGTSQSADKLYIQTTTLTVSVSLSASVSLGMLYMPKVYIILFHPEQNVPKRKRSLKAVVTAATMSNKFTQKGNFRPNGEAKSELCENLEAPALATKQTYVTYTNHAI

| EC50 (human mGluR4 (hmGluR4)) | melting point [°C] | SMILES |
| --- | --- | --- |
| ≤ 0.1 µM | 160 to 170 | Cc1cc(CCN2CC3CCC(C2)O3)cc2c(=O)[nH]c(-c3cc(C(F)(F)F)ccn3)nc12.Cl [Compound 162, 6-(2-(8-Oxa-3-azabicyclo[3.2.1]octan-3-yl)ethyl)-8-methyl-2-(4-(trifluoromethyl)pyridin-2-yl)quinazolin-4(3H)-one hydrochloride] |
| 0.1 to 1 µM | 205 to 215 | COCCN(C)Cc1cc(C)c2nc(-c3cc4sccc4cn3)[nH]c(=O)c2c1.Cl [Compound 151, 6-(((2-Methoxyethyl)(methyl)amino)methyl)-8-methyl-2-(thieno[3,2-c]pyridin-6-yl)quinazolin-4(3H)-one hydrochloride] |
| ≤ 0.1 µM | 245 to 250 | Cc1cc(CN2CCS(=O)(=O)CC2)cc2c(=O)[nH]c(-c3cc4sccc4cn3)nc12 [Compound 150, 6-[(1,1-Dioxo-1,4-thiazinan-4-yl)methyl]-8-methyl-2-thieno[3,2-c]pyridin-6-yl-3H-quinazolin-4-one] |
| ≤ 0.1 µM | > 250 | Cc1cc(CN2CCC3(CC2)COC3)cc2c(=O)[nH]c(-c3cc4sccc4cn3)nc12 [Compound 155, 8-Methyl-6-(2-oxa-7-azaspiro[3.5]nonan-7-ylmethyl)-2-thieno[3,2-c]pyridin-6-yl-3H-quinazolin-4-one] |
| 0.1 to 1 µM and < 1 µM | 239 to 245 | Cl.O=c1[nH]c(-c2cc(C(F)(F)F)ccn2)nc2ccc(OCCCc3ccncc3)cc12 [Compound 9, 6-(3-Pyridin-4-yl-propoxy)-2-(4-trifluoromethyl-pyridin-2-yl)-3H-quinazolin-4-one hydrochloride] |
| ≤ 0.1 µM | 215 to 220 | Cc1cc(CC(=O)N2CCCOCC2)cc2c(=O)[nH]c(-c3cc4ccsc4cn3)nc12 [Compound 138, 8-Methyl-6-[2-(1,4-oxazepan-4-yl)-2-oxo-ethyl]-2-thieno[2,3-c]pyridin-5-yl-3H-quinazolin-4-one] |
| 0.1 to 1 µM and < 1 µM | > 250 | Cl.O=c1[nH]c(-c2cc3sccc3cn2)nc2ccc(OCCCc3ccncc3)cc12 [Compound 3, 6-(3-Pyridin-4-yl-propoxy)-2-thieno[3,2-c]pyridin-6-yl-3H-quinazolin-4-one hydrochloride] |
| 1 to 10 µM | > 250 | Cc1cc(CCN2CCCCC2)cc2c(=O)[nH]c(-c3cnc4sccc4c3)nc12.Cl [Compound 128, 8-Methyl-6-(2-piperidin-1-yl-ethyl)-2-thieno[2,3-b]pyridin-5-yl-3H-quinazolin-4-one hydrochloride] |
| 0.1 to 1 µM | 224 to 227 | Cc1cc(O[C@H]2CCN(C(=O)OCc3ccccc3)C2)cc2c(=O)[nH]c(-c3cc4sccc4cn3)nc12 [Compound 141, Benzyl (3S)-3-[(8-methyl-4-oxo-2-thieno[3,2-c]pyridin-6-yl-3H-quinazolin-6-yl)oxy]pyrrolidine-1-carboxylate] |
| 0.1 to 1 µM | 202 to 206 | O=c1[nH]c(-c2cc3cccn3cn2)nc2ccc(OCCCc3ccncc3)cc12 [Compound 1, 6-(3-pyridin-4-yl-propoxy)-2-pyrrolo[1,2-c]pyrimidin-3-yl-3H-quinazolin-4-one] |
| 1 to 10 µM | 149 to 162 | COCCN(C)CCc1cc(C)c2nc(-c3cc4sccc4cn3)[nH]c(=O)c2c1.Cl [Compound 148, 6-(2-((2-Methoxyethyl)(methyl)amino)ethyl)-8-methyl-2-(thieno[3,2-c]pyridin-6-yl)quinazolin-4(3H)-one hydrochloride] |
| ≤ 0.1 µM | > 250 | Cc1cc(N2CCC3(CCOCC3)CC2)cc2c(=O)[nH]c(-c3cc4sccc4cn3)nc12 [Compound 120, 8-Methyl-6-(3-oxa-9-azaspiro[5.5]undecan-9-yl)-2-(thieno[3,2-c]pyridin-6-yl)quinazolin-4(3H)-one] |
| ≤ 0.1 µM | > 250 | Cc1cc(CN2CCSCC2)cc2c(=O)[nH]c(-c3cc4ccsc4cn3)nc12.Cl [Compound 137, 8-Methyl-2-thieno[2,3-c]pyridin-5-yl-6-(thiomorpholinomethyl)-3H-quinazolin-4-one hydrochloride] |
| ≤ 0.1 µM | 220 to 230 | Cc1cc(OC2CCC(=O)N(C)C2)cc2c(=O)[nH]c(-c3cc4cccn4cn3)nc12 (centres unmarked) [Compound 118, 8-Methyl-6-[(1-methyl-6-oxo-3-piperidyl)oxy]-2-pyrrolo[1,2-c]pyrimidin-3-yl-3H-quinazolin-4-one] |
| ≤ 0.1 µM | > 250 | Cc1cc(OCC2CCN(C)C(=O)C2)cc2c(=O)[nH]c(-c3cc4ccsc4cn3)nc12 (centres unmarked) [Compound 130, 8-Methyl-6-(1-methyl-2-oxo-piperidin-4-ylmethoxy)-2-thieno[2,3-c]pyridin-5-yl-3H-quinazolin-4-one] |
| 1 to 10 µM | > 250 | Cc1cc(CN2CCCC2)cc2c(=O)[nH]c(-c3cc4ccsc4cn3)nc12.Cl [Compound 133, 8-Methyl-6-(pyrrolidin-1-ylmethyl)-2-thieno[2,3-c]pyridin-5-yl-3H-quinazolin-4-one hydrochloride] |

| EC50 (human mGluR4 (hmGluR4)) | melting point [°C] | SMILES |
| --- | --- | --- |
| ≤ 0.1 µM | > 250 | Cc1cc(OC2CCC(=O)N(C)C2)cc2c(=O)[nH]c(-c3cc(C(F)(F)F)ccn3)nc12 (centres unmarked) [Compound 136, 8-Methyl-6-(1-methyl-6-oxo-piperidin-3-yloxy)-2-(4-trifluoromethyl-pyridin-2-yl)-3H-quinazolin-4-one] |
| ≤ 0.1 µM | 254 to 256 | Cc1cc(CC(=O)N2CCOCC2)cc2c(=O)[nH]c(-c3cc4cccn4cn3)nc12 [Compound 134, 8-Methyl-6-(2-morpholino-2-oxo-ethyl)-2-pyrrolo[1,2-c]pyrimidin-3-yl-3H-quinazolin-4-one] |
| 0.1 to 1 µM | 233 to 240 | Cc1cc(CN2CCCCC2)cc2c(=O)[nH]c(-c3cc4ccsc4cn3)nc12.Cl [Compound 131, 8-Methyl-6-(1-piperidylmethyl)-2-thieno[2,3-c]pyridin-5-yl-3H-quinazolin-4-one hydrochloride] |
| 0.1 to 1 µM | 197 to 199 | O=c1[nH]c(-c2cc3ccsc3cn2)nc2ccc(OCCCc3cocn3)cc12 [Compound 64, 6-(3-Oxazol-4-yl-propoxy)-2-thieno[2,3-c]pyridin-5-yl-3H-quinazolin-4-one] |
| > 10 µM | 209 to 213 | COCCOc1ccc2nc(-c3cc4sccc4cn3)[nH]c(=O)c2c1 [Compound 36, 6-(2-Methoxy-ethoxy)-2-thieno[3,2-c]pyridin-6-yl-3H-quinazolin-4-one] |
| ≤ 0.1 µM | 200 to 212 | Cc1cc(CCN2CCS(=O)(=O)CC2)cc2c(=O)[nH]c(-c3cc4sccc4cn3)nc12 [Compound 149, 6-(2-(1,1-Dioxidothiomorpholino)ethyl)-8-methyl-2-(thieno[3,2-c]pyridin-6-yl)quinazolin-4(3H)-one] |
| 0.1 to 1 µM | > 250 | CC(=O)N1CCC(COc2ccc3nc(-c4cc5ccsc5cn4)[nH]c(=O)c3c2)CC1 [Compound 47, 6-(1-Acetyl-piperidin-4-ylmethoxy)-2-thieno[2,3-c]pyridin-5-yl-3H-quinazolin-4-one] |
| 1 to 10 µM | > 250 | COc1ccnc(-c2nc3ccc(OCCCc4ccncc4)cc3c(=O)[nH]2)c1.Cl [Compound 7, 2-(4-methoxy-pyridin-2-yl)-6-(3-pyridin-4-yl-propoxy)-3H-quinazolin-4-one hydrochloride] |
| ≤ 0.1 µM | 188 to 195 | Cc1cc(OCC2(F)CCOC2)cc2c(=O)[nH]c(-c3cc(C(F)(F)F)ccn3)nc12 (centres unmarked) [Compound 112, 6-[(3-fluorotetrahydrofuran-3-yl)methoxy]-8-methyl-2-[4-(trifluoromethyl)-2-pyridyl]-3H-quinazolin-4-one] |
| 0.1 to 1 µM | 120 to 132 | Cc1cc(O[C@@H](C)C2CCOCC2)cc2c(=O)[nH]c(-c3cc(C(F)(F)F)ccn3)nc12 [Compound 111-S, S-8-Methyl-6-[1-(tetrahydro-pyran-4-yl)-ethoxy]-2-(4-trifluoromethyl-pyridin-2-yl)-3H-quinazolin-4-one] |
| 0.1 to 1 µM | 149 to 154 | Cl.O=c1[nH]c(-c2cc3sccc3cn2)nc2ccc(OCCCc3cccnc3)cc12 [Compound 37, 6-(3-Pyridin-3-yl-propoxy)-2-thieno[3,2-c]pyridin-6-yl-3H-quinazolin-4-one hydrochloride] |
| 0.1 to 1 µM | 236 to 237 | CS(=O)(=O)c1ccc(CCCOc2ccc3nc(-c4cc5ccsc5cn4)[nH]c(=O)c3c2)cc1 [Compound 60, 6-[3-(4-Methanesulfonyl-phenyl)-propoxy]-2-thieno[2,3-c]pyridin-5-yl-3H-quinazolin-4-one] |
| 0.1 to 1 µM | 148 to 150 | Cc1cc(CCN2CCN(C)C(=O)C2)cc2c(=O)[nH]c(-c3cc(C(F)(F)F)ccn3)nc12.Cl [Compound 144, 8-Methyl-6-[2-(4-methyl-3-oxo-piperazin-1-yl)ethyl]-2-[4-(trifluoromethyl)-2-pyridyl]-3H-quinazolin-4-one hydrochloride] |
| 0.1 to 1 µM | > 250 | Cl.O=c1[nH]c(-c2ccc(C(F)(F)F)cn2)nc2ccc(OCCCc3ccncc3)cc12 [Compound 10, 6-[3-(4-pyridyl)propoxy]-2-[5-(trifluoromethyl)-2-pyridyl]-3H-quinazolin-4-one hydrochloride] |
| ≤ 0.1 µM | > 250 | Cc1cc(CN2CCOCC2)cc2c(=O)[nH]c(-c3cc4cccn4cn3)nc12.Cl [Compound 125, 8-Methyl-6-(morpholinomethyl)-2-pyrrolo[1,2-c]pyrimidin-3-yl-3H-quinazolin-4-one hydrochloride] |
